Data taken from patent US7087608B2, “Use of PDGF receptor tyrosine kinase inhibitors for the treatment of diabetic nephropathy” (priority 2000, dated 2006).

Tested on: male Wistar rats with anti-Thy-1 nephritis
Assay: Mesangial proliferative glomerulonephritis (anti-Thy-1 nephritis) induced with OX-7 antibody
Format: in vivo, rat
Excerpt: Mesangial proliferative Glomerulonephritis induced in Male Wistar Rats with monoclonal OX-7, anti-rat Thy-1.1 Antibody
Monoclonal OX-7, anti-rat Thy-1.1 antibody is used for the induction of mesangial proliferative glomerulonephritis (D. W. Mason and A. F. Williams, Biochem. J. 187(1), 1980, 1–20), macrophages are detected using ED1, anti-rat CD68 (C. D. Dijkstra et al., Immunology 54(3), 1985, 589–99) myofibroblasts are identified by labelling with 1A4, anti-human a smooth muscle actin (Sigma Immunochemicals, St. Louis, Mo.) and M744, anti-BrdU (Dako, Glostrup, Denmark) is used to identify proliferating cells. A polyclonal goat anti-bovine/anti-human type IV collagen antibody (Southern Biotechnology, Birmingham, Ala.) is used to examine extracellular matrix.
Anti-Thy-1 nephritis is induced in two groups of 8 male Wistar rats (150–170 g) by i.v. injection of 5 mg/kg OX-7 IgG (D. J. Nikolic-Paterson et al., J. Am. Soc. Nephrol. 7(7), 1996, 1006–14). […] A group of 8 normal rats are also injected with BrdU 3 hours before sacrifice.
Twenty-four hour urine collections and blood samples are taken on days-3 (prior to test) and day 6. Urinary protein concentration is measured by the benzethonium chloride method (Iwata, J. et al., Clin. Chem. 25(7), 1979, 1317–9). Serum and urine creatinine levels are measured using the Jaffé rate reaction (Larsen, K., Clin. Chim. Acta 41, 1972, 209–17).
Tissues are fixed in 4% neutral buffered-formalin and embedded in paraffin. Kidney sections (4 μm) are stained with periodic-acid Schiff's reagent (PAS). Quantitation of nuclei is performed by examining 50 hilar glomeruli per animal.
Immunostaining is performed as described by Rumble et al., J. Clin. Invest. 99, 1997, 1016–1027. Double immunohistochemical staining is performed in formalin fixed tissue sections using a microwave-based technique to prevent antibody cross-reactivity (G. H. Tesch, et al, Am. J. Pathol. 151(1), 1997, 141–50).
Sections stained with either BrdU or ED1 antibody are scored for ED1+ or BrdU+. Counting is undertaken using a graticule to measure glomerular tuft area and confined to the glomerular tuft thereby omitting cells within the capillary lumen. Fifty glomeruli are scored for each animal and labelled cells expressed as the mean±SD per mm^2. In addition, the number of cells in double-labelled sections are also scored as ED1+BrdU+, ED1+BrdU− and ED1−BrdU+.
The magnitude of immunostaining for type IV collagen is quantified using computer assisted image analysis as previously described (H. A. Lehr et al., J. Histochem. Cytochem. 45(11), 1997, 1559–65).

[1] = 50 mg/kg daily i.p., day 6, 50 hilar glomeruli per animal, p<0.05

SMILES: Cc1ccc(NC(=O)c2ccc(CN3CCN(C)CC3)cc2)cc1Nc1nccc(-c2cccnc2)n1 [CGP 57148B, N-{5-[4-(4-methyl-piperazino-methyl)-benzoylamido]-2-methylphenyl}-4-(3-pyridyl)-2-pyrimidine-amine]
- Proteinuria (50 mg/kg daily i.p. from day 1 after OX-7 IgG, day 6, 24-hour urine): 16.4±7.0 mg/24 hours
- Mesangial cell (BrdU+ED1−) proliferation per glomerular cross section (FIG. 2) (50 mg/kg daily i.p., day 6, 50 hilar glomeruli per animal, p<0.001): significantly reduced
- Glomerular hypercellularity, nuclei per glomerular cross section (FIG. 1) [1]: significantly reduced
- Number of activated mesangial cells (a-smooth muscle actin positive) (FIG. 3) [1]: significantly reduced
- Glomerular matrix accumulation of immunostainable type IV collagen (FIG. 4) (50 mg/kg daily i.p., day 6, image analysis, p<0.05 versus untreated rats): significantly reduced
- Mesangial hypercellularity and increased mesangial matrix in PAS-stained kidney sections (50 mg/kg daily i.p., killed on day 6): not observed
